Assay [1] in a line: Induction of INF-alpha production in healthy human PBMC incubated for 16 hrs. Type of assay: functional, tissue-based.
Assay [2] in a line: Induction of INF-gamma production in healthy human PBMC incubated for 16 hrs. Format: functional, tissue-based.
A short description of assay [3]: Induction of TNF-alpha production in healthy human PBMC incubated for 16 hrs. Type of assay: functional, tissue-based.
A short description of another assay: cells. The settings on record: Homo sapiens, HEK-293T.
For assay [4], the target named is T1, Stimulator of interferon genes protein (Homo sapiens, UniProt Q86WV6). As to the kind of experiment: Activation of wild-type human STING expressed in HEK293T cells co-expressing IRF3-activated ISRE assessed as IRF3 reporter activation measured after 30 mins by luciferase reporter gene assay. Type of assay: cell-based. A general note: Reporter assays use an easily measured gene product as a stand-in for the process of interest.

For assay [5], the target named is T1, Stimulator of interferon genes protein. Briefly: Activation of wild-type human STING expressed in HEK293T cells co-expressing IRF3-activated ISRE assessed as IRF3 reporter activation measured after 7 hrs by luciferase reporter gene assay. Type of assay: cell-based.
The target is the same in assay [6]. Briefly: Activation of wild-type human STING expressed in digitonin treated human THP1-Dual cells co-expressing IRF3-activated ISRE assessed as IRF3 reporter activation measured after 30 mins by luciferase reporter gene assay. Format: cell-based.
Assay [7] has the same target. Briefly: Activation of wild-type human STING expressed in human THP1-Dual cells co-expressing IRF3-activated ISRE assessed as IRF3 reporter activation measured after 7 hrs by luciferase reporter gene assay. Type of assay: cell-based.
Assay [8] in a line: Potency index, ratio of test compound EC50 to prodrug EC50 for induction of INF-alpha production in healthy human PBMC incubated for 16 hrs. Type of assay: functional.
The nature of assay [9]: Potency index, ratio of test compound EC50 to prodrug EC50 for induction of INF-gamma production in healthy human PBMC incubated for 16 hrs. Format: functional.
The nature of assay [10]: Potency index, ratio of test compound EC50 to prodrug EC50 for induction of TNF-alpha production in healthy human PBMC incubated for 16 hrs. Format: functional.
Assay [11] has as its target T1, Stimulator of interferon genes protein. As to the kind of experiment: Potency index, ratio of test compound EC50 to prodrug EC50 for activation of wild-type human STING expressed in human THP1-Dual cells co-expressing IRF3-activated ISRE assessed as IRF3 reporter activation measured after 30 mins by luciferase reporter gene assay. Format: cell-based.
For assay [12] the target is unchanged. As to the kind of experiment: Potency index, ratio of test compound EC50 to prodrug EC50 for activation of wild-type human STING expressed in HEK293T cells co-expressing IRF3-activated ISRE assessed as IRF3 reporter activation measured after 30 mins by luciferase reporter gene assay. Type of assay: cell-based.
For assay [13] the target is unchanged. Briefly: Potency index, ratio of test compound EC50 to prodrug EC50 for activation of wild-type human STING expressed in HEK293T cells co-expressing IRF3-activated ISRE assessed as IRF3 reporter activation measured after 7 hrs by luciferase reporter gene assay. Format: cell-based.
For assay [14] the target is unchanged. Briefly: Potency index, ratio of test compound EC50 to prodrug EC50 for activation of wild-type human STING expressed in digitonin treated THP1-Dual cells co-expressing IRF3-activated ISRE assessed as IRF3 reporter activation measured after 7 hrs by luciferase reporter gene assay. Format: cell-based.
Assay [15] is described as follows: Activation of human STING Q mutant expressed in digitonin treated HEK293T cells co-expressing IRF3-activated ISRE assessed as IRF3 reporter activation by luciferase reporter gene assay. Format: cell-based. The note with it: HEK-293T.

T1 sequence (Q86WV6 whole entry): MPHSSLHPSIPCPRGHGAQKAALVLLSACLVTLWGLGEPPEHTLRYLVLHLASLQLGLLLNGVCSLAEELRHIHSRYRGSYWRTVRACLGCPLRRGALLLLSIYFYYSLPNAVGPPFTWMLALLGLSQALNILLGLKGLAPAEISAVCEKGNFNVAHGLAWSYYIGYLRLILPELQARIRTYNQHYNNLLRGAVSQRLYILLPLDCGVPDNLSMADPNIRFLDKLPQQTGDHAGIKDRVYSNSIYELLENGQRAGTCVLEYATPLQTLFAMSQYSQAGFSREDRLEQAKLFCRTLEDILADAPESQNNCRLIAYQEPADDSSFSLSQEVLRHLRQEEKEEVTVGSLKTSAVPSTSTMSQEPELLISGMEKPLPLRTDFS
Description for cells: Activation of human STING REF mutant expressed in digitonin treated HEK293T cells co-expressing IRF3-activated ISRE assessed as IRF3 reporter activation by luciferase reporter gene assay

Take `Nc1nc2c(ncn2[C@@H]2O[C@@H]3COP(=O)(O)O[C@H]4[C@@H](O)[C@H](n5cnc6c(N)ncnc65)O[C@@H]4COP(=O)(O)O[C@H]3[C@H]2O)c(=O)[nH]1`: the EC50 (usually the midpoint of the concentration-response curve) in [1] was 26700 nM; in assay [2], 15100 nM; in assay [3], greater than 300000 nM; in “cells”, 4260 nM.
On to `CCC(CC)C(=O)OCO[P@@]1(=O)OC[C@H]2O[C@@H](n3cnc4c(N)ncnc43)[C@H](F)[C@@H]2O[P@](=O)(OCOC(=O)C(CC)CC)OC[C@H]2O[C@@H](n3cnc4c(N)ncnc43)[C@H](F)[C@@H]2O1`, for which the EC50 is 230 nM in assay [4]; 30 nM in assay [5]; 350 nM in [6]; 50 nM in [7]; 260 nM in assay [1]; 30 nM in assay [2]. The compound further had an EC50 in assay [3] of 70 nM. Moreover, the “Ratio EC50” value in [8] is 195; in assay [9], 285; in [10] it was 432.
`CC(C)OC(=O)OCO[P@@]1(=O)OC[C@H]2O[C@@H](n3cnc4c(N)ncnc43)[C@H](F)[C@@H]2O[P@](=O)(OCOC(=O)OC(C)C)OC[C@H]2O[C@@H](n3cnc4c(N)ncnc43)[C@H](F)[C@@H]2O1`: the EC50 amounted to 940 nM in [4]; 170 nM in assay [5]; 970 nM in assay [6]; 110 nM in assay [7]; 1290 nM in assay [1]; 1470 nM in assay [2]. In [3], this compound registered an EC50 of 710 nM. Moreover, the “Ratio EC50” value is 40 in assay [8], 6 in assay [9] and 45 in assay [10].
Regarding `CC(C)(C)C(=O)OCS[P@@]1(=O)OC[C@H]2O[C@@H](n3cnc4c(N)ncnc43)[C@H](F)[C@@H]2O[P@@](=O)(SCOC(=O)C(C)(C)C)OC[C@H]2O[C@@H](n3cnc4c(N)ncnc43)[C@H](F)[C@@H]2O1`, the Ratio EC50 in assay [11] came out at 152; in [12], 62; in assay [13] it was 23; in [14], 159; in assay [8] it was 41; in [9], 8. The “Ratio EC50” value in assay [10] is 146. Also, the EC50 in assay [4] came to 40 nM; in assay [5], 70 nM; in [6] it was 80 nM; in [7], 50 nM; in assay [1] it was 720 nM; in assay [2], 1190 nM. In addition, the response in assay [3] was half-maximal at 180 nM (EC50).
For `Nc1ncnc2c1ncn2[C@@H]1O[C@@H]2CO[P@@](=O)(OCOC(=O)c3ccccc3)O[C@H]3[C@@H](F)[C@H](n4cnc5c(N)ncnc54)O[C@@H]3COP(=O)(O)O[C@H]2[C@H]1F`, the Ratio EC50 was determined as 11 in assay [11], 31 in assay [12], 20 in assay [13] and 4 in assay [14]. The EC50 in [4] amounted to 3090 nM; in [5], 400 nM; in assay [6], 1740 nM; in assay [7], 270 nM.
For the compound `CC(C)OC(=O)OCO[P@]1(=O)OC[C@H]2O[C@@H](n3cnc4c(N)ncnc43)[C@H](F)[C@@H]2O[P@](=O)(OCOC(=O)OC(C)C)OC[C@H]2O[C@@H](n3cnc4c(N)ncnc43)[C@H](F)[C@@H]2O1`, the EC50 in assay [4] was 310 nM; in assay [5], 30 nM; in assay [6], 380 nM; in assay [7], 30 nM; in assay [1], 360 nM; in [2], 160 nM. In assay [3], this compound yielded an EC50 of 350 nM. Besides, the “Ratio EC50” value in assay [8] amounted to 414; in assay [9], 51; in assay [10], 90.
On to `CC(C)(C)C(=O)OCS[P@]1(=O)OC[C@H]2O[C@@H](n3cnc4c(N)ncnc43)[C@H](F)[C@@H]2O[P@](=O)(SCOC(=O)C(C)(C)C)OC[C@H]2O[C@@H](n3cnc4c(N)ncnc43)[C@H](F)[C@@H]2O1`, for which the Ratio EC50 in assay [11] came to 55; in [12] it was 38; in assay [13], 10; in assay [14], 15; in assay [8], 301; in [9] it was 68. In assay [10], the “Ratio EC50” value is 93. For the same compound, the EC50 in [4] came out at 180 nM; in assay [5], 120 nM; in assay [6] it was 60 nM; in assay [7], 20 nM; in [1], 130 nM; in assay [2] it was 90 nM. Also, the response in assay [3] was half-maximal at 100 nM (EC50).
Turning to `CC(C)(C)C(=O)OCO[P@]1(=O)OC[C@H]2O[C@@H](n3cnc4c(N)ncnc43)[C@H](F)[C@@H]2OP(=O)(O)OC[C@H]2O[C@@H](n3cnc4c(N)ncnc43)[C@H](F)[C@@H]2O1`, the Ratio EC50 in assay [11] is 38; in assay [12], 212; in assay [13] it was 61; in assay [14], 6. In addition, the EC50 in assay [4] amounted to 460 nM; in assay [5], 130 nM; in assay [6], 500 nM; in assay [7], 180 nM.
As to `CCC(CC)C(=O)OCO[P@]1(=O)OC[C@H]2O[C@@H](n3cnc4c(N)ncnc43)[C@H](F)[C@@H]2O[P@](=O)(OCOC(=O)C(CC)CC)OC[C@H]2O[C@@H](n3cnc4c(N)ncnc43)[C@H](F)[C@@H]2O1`, the EC50 in assay [4] worked out at 70 nM; in assay [5], 10 nM; in assay [6], 110 nM; in assay [7] it was 20 nM; in [1] it was 50 nM; in assay [2], 4 nM. Moreover, the EC50 in assay [3] is 20 nM. Besides, the figures for the “Ratio EC50” value in assay [8], in assay [9] and in assay [10] were 985, 2135 and 1485, respectively.
Take `CCC(CC)C(=O)OCO[P@]1(=O)OC[C@H]2O[C@@H](n3cnc4c(N)ncnc43)[C@H](F)[C@@H]2OP(=O)(O)OC[C@H]2O[C@@H](n3cnc4c(N)ncnc43)[C@H](F)[C@@H]2O1`: the Ratio EC50 stood at 20 in assay [11], 71 in assay [12], 18 in [13] and 7 in [14]. In addition, the concentration for a half-maximal effect (EC50) in assay [4] was found to be 1360 nM; in [5], 450 nM; in assay [6], 970 nM; in [7], 150 nM.
Turning to `CC(C)OC(=O)OCO[P@]1(=O)OC[C@H]2O[C@@H](n3cnc4c(N)ncnc43)[C@H](F)[C@@H]2OP(=O)(O)OC[C@H]2O[C@@H](n3cnc4c(N)ncnc43)[C@H](F)[C@@H]2O1`, the Ratio EC50 came out at 11 in assay [11], 50 in [12], 25 in assay [13] and 5 in assay [14]. Besides, the EC50 in assay [4] is 1930 nM; in [5], 320 nM; in assay [6], 1710 nM; in assay [7], 200 nM.
As for `Nc1ncnc2c1ncn2[C@@H]1O[C@@H]2CO[P@@](=O)(OCOC(=O)c3ccccc3)O[C@H]3[C@@H](F)[C@H](n4cnc5c(N)ncnc54)O[C@@H]3CO[P@](=O)(OCOC(=O)c3ccccc3)O[C@H]2[C@H]1F`, the EC50 in assay [5] was 40 nM; in assay [6] it was 330 nM; in assay [7], 40 nM; in assay [1], 700 nM; in assay [2] it was 30 nM; in assay [3], 230 nM.
On to `CC(C)(C)C(=O)OCS[P@@]1(=O)OC[C@H]2O[C@@H](n3cnc4c(N)ncnc43)[C@H](F)[C@@H]2O[P@](=O)(SCOC(=O)C(C)(C)C)OC[C@H]2O[C@@H](n3cnc4c(N)ncnc43)[C@H](F)[C@@H]2O1`, for which the Ratio EC50 in assay [11] was found to be 94; in assay [12], 14; in assay [13], 3; in assay [14] it was 18; in assay [8], 260; in assay [9], 222. Also, the “Ratio EC50” value in assay [10] is 82. In addition, the EC50 in [4] was determined as 40 nM; in assay [5], 40 nM; in assay [6] it was 30 nM; in assay [7], 20 nM; in assay [1] it was 70 nM; in assay [2], 50 nM. In assay [3], the EC50 was found to be 100 nM.
For `Nc1nc2c(ncn2[C@@H]2O[C@@H]3COP(=O)(O)O[C@@H]4[C@H](O)[C@@H](COP(=O)(O)O[C@@H]2[C@@H]3O)O[C@H]4n2cnc3c(N)ncnc32)c(=O)[nH]1`, the EC50 was determined as 170 nM in assay [15]; 85100 nM in assay [4]; 11700 nM in assay [5]; 28500 nM in assay [6]; 2630 nM in [7]; 17300 nM in assay [1]. Besides, the EC50 in [2] stood at 11500 nM; in assay [3] it was 72600 nM.

Values taken from ChEMBL document CHEMBL5036318, “Synthesis and Biological Evaluation of Phosphoester and Phosphorothioate Prodrugs of STING Agonist 3',3'-c-Di(2'F,2'dAMP)” (J Med Chem, 2021).
